One series has as its target T1, SYK (Homo sapiens, UniProt P43405).
T1 construct: endogenous in cells; host or cells: platelets
The series is described as follows: SYK activity in platelets. It is filed as cell-based. To be noted: data not shown.

Another series relates to human platelets. Nature of the series: Electron microscopy (HR-LVSEM, TEM) of platelet shape changes. It is filed as cell-based. To be noted: 100 μM. The procedure: HR-LVSEM was utilized for topographical imaging of the platelet surface membrane, as previously reported (D'Cruz et al., 1998). […] Treated platelets were then stimulated with collagen (10 μg/mL) or thrombin (0.1 U/mL) for 10 seconds (FIGS. 3A-3F). 3% glutaraldehyde was added to stop the reaction. Samples were prepared for HR-LVSEM as previously described (D'Cruz et al., 1998) and analyzed using a Hitachi S-900 SEM instrument (Hitachi Instruments, Gaithersburg, Md.) at an accelerating voltage of 2 kV and […].
Samples were then prepared for TEM as previously described (White, 1983). Briefly, 0.1% glutaraldehyde was added to stop the reaction. Following a brief centrifugation, the sample pellets were layered with 3% glutaraldehyde for 40 minutes at room temperature. The samples were then postfixed in 1% OsO4 for 1 hour at 4° C., rinsed three times in distilled water at room temperature, dehydrated in a graded ethanol series (25, 50, 75, 90, 95 and 100%) and 100% propylene oxide. The samples were embedded in Embed 812 (Electron Microscopy Science, Washington, Pa.). Silver sections were picked up on mesh grids, stained 10 minutes in 1% uranyle acetate/70% ethanol, and 10 minutes in Reynold's lead citrate. […] True magnifications were determined by photographing a calibration grid at each magnification step on the microscope and using this scale to determine final print enlargements.

Series [1] deals with platelets. Nature of the series: Collagen-induced platelet aggregation (aggregometer). It is filed as cell-based, human. To be noted: for IC50: 30 min pretreatment. The procedure: (§1) Platelet aggregation with respect to control was monitored in a Chronolog Model 560 Dual Chamber Platelet Aggregometer.
(§2) Controls were treated with vehicle (PBS supplemented with 1% DMSO) alone. The treated PRP samples were diluted 1:4 with sterile normal saline and platelets were stimulated with collagen (2 μg/mL or 5 μg/mL, Chronolog Inc., Philadelphia, Pa.) or thrombin (0.1 U/mL, Chronolog Inc., Philadelphia, Pa.) as agonists under stirred conditions. Platelet aggregation was monitored in a platelet aggregometer (Model 560 Dual Chamber-Instrument, Chronolog Ind., Philadelphia, Pa.) for 5 minutes.

For series [2], the system named is platelets. Nature of the series: Thrombin-induced platelet aggregation (aggregometer). It is filed as cell-based, human. To be noted: thrombin 0.1 U/mL. The protocol: as §1, §2
Series [3] deals with platelets. Nature of the series: Serotonin release from collagen-stimulated platelets. It is filed as cell-based, human. To be noted: LFM-A13 treated, N=4. The procedure:
Release of serotonin from collagen (10 and 20 μg/mL)-stimulated platelets was measured using a serotonin detection kit (Immunotech, Marseille, France) according to the manufacturer's specifications. Sonicated platelets were used for measurement of the total serotonin content of platelets.

For series [4], the system named is mice. The series is described as follows: Toxicity of LFM-A13 in mice. As to conditions: mice N=160, 12.5 mg/kg to 100 mg/kg i.p. An excerpt: For histopathologic studies, tissues were fixed in 10% neutral buffered formalin, dehydrated, and embedded in paraffin by routine methods.
Series [5] relates to mice. The series is described as follows: Tail bleeding time in mice. It is filed as in vivo. The procedure:
Mice were placed in a tube holder and tail bleeding was performed with a 2 mm cut from the protruding tail tip, the tail was placed vertically into 10 mL normal saline in a 37° C. water bath and bleeding times determined as previously described (Teng et al., 1997). Platelet plug formation and clotting times on the eye after retro-orbital venupuncture were evaluated using published methods (Sheu et al., 1995).

The test system of the next series is ICR mice. Nature of the series: Thromboplastin-induced fatal thromboembolism in mice. It is filed as in vivo. As to conditions: for median survival time / probability of event-free survival after thromboplastin challenge: N=10. The procedure: The mice were challenged with 25 mg/kg thromboplastin (Sigma, St. Louis, Mo.) via a bolus i.v. injection in to the tail vein as previously described (Sato et al., 1998). At the time of thromboembolism-related death, after the thromboplastin injection or elective sacrifice at 48 hours using ketamine/xylazine, all mice were perfused with PBS followed by 4% phosphate buffered formalin. PBS and formalin were pumped through the left ventricle of the heart and allowed to exit through a 3 mm incision through the anterior wall of the right ventricle.

Series [6] deals with platelets. The series is described as follows: Collagen-induced calcium mobilization in platelets (fluorescence). It is filed as cell-based, human. To be noted: 100 μM; collagen 20 μg/ml. The procedure: Platelets were loaded with […] (Molecular Probes, Eugene Oreg.) for 15 minutes at 37 degrees C. […] The changes in fluorescence were monitored on a spectrofluorimeter.
On the technique in general: A change in cytosolic calcium serves as a functional read-out for many receptors and channels.

“Also recorded” adds a separate entry of the source. Where two headings read alike, the source gives them in different places.

Experimental for SYK: Platelets were isolated from platelet rich plasma (PRP) purchased from the Memorial Blood Bank (Minneapolis, Minn.) as previously described (Asselin et al. 1997) and used at a concentration of 3×10^9 cells/mL in a modified Tyrode's buffer (137 mM NaCl, 2.7 mM KCl, 0.9 mM MgCl2, 5.5 mM glucose, 3.3 mM NaH2PO4, 3.8 mM Hepes, pH 7.4). […] Platelets were then stimulated at 37° C. with 2 μg/mL (or 10 μg/mL) collagen or 0.1 U/mL thrombin (Chronolog Inc., Philadelphia, Pa.). Stimulation was stopped and platelets were lysed at the indicated time points by adding ice cold 3x Triton X-100 lysis buffer (150 mM NaCl, 15 mM EGTA, 3% Triton X-100, 3% Sodium deoxycholate, 0.3% SDS, 3 mM PMSF, 3 mM Na3 VO4, 60 μg/mL leupeptin, 60 μg/mL aprotinin, 50 mM Tris-HCl pH 7.4) and incubating for 1 hour on ice. Following removal of the membranous fraction by centrifugation (12,000xg, 30 min) the samples were subjected to immunoprecipitation utilizing antibodies raised against BTK (Santa Cruz Biotechnologies, Santa Cruz, Calif.), TEC (Upstate Biotechnology, Lake Placid, N.Y.) and PLCγ2 (Santa Cruz Biotechnologies, Santa Cruz, Calif.) (Vassilev et al., 1999).

For the compound `C/C(O)=C(\C#N)C(=O)Nc1cc(Br)ccc1Br` [LFM-A13, α-cyano-β-hydroxy-β-methyl-N-(2,5-dibromophenyl)-propenamide], the “baseline and collagen-induced SYK activity in platelets” value at SYK is “did not inhibit the baseline activity of SYK or SRC or prevent collagen-induced SYK and SRC activation”. In addition, the collagen-induced pseudopod formation entry in the series with human platelets (30 min, collagen 10 μg/mL, 10 seconds) is “inhibited collagen-induced pseudopod formation; also recorded: no pseudopods were observed”. Also, in the series on human platelets (thrombin 0.1 U/mL), the thrombin-induced shape changes entry is on record as “did not inhibit the thrombin-induced shape changes”. In addition, in the series with platelets [1] (100 μM, 30 minute pretreatment, 2 μg/mL collagen), the “collagen-induced platelet aggregation at 100 μM” value is listed as “completely prevented”. The IC50 with platelets [1] (Homo sapiens, Platelet, read-out: IC50 inhibition of platelet aggregation, 2 μg/mL collagen) stood at 2780 nM; in the series with platelets [1] (Homo sapiens, Platelet, read-out: IC50 inhibition of platelet aggregation, 5 μg/mL collagen), 66100 nM; in the series on platelets [1] (read-out: IC50 inhibition of platelet aggregation, 2 μg/mL collagen) it was 2800 ± 930 nM. Also, the “platelet response to high and low doses of collagen, PRP” value in the series with platelets [1] (PRP treated 20 min or 24 hours, collagen 2 or 5 μg/mL) is reported as “significantly reduced”. The “thrombin-induced platelet aggregation, PRP” value with platelets [2] (PRP treated 20 min or 24 hours) is on record as “No significant effect”. Also, in the series on platelets [2] (up to 1000 μM), the “effect on thrombin-induced platelet aggregation” value is listed as “No significant effect; also recorded: not impaired”. In the series with platelets [3], the “serotonin in platelet supernatants” value worked out at 369 ± 14 nM. Moreover, in the series with mice [4], the “toxicity, single i.p. bolus” value was “not toxic”. The entries for the “prolongation of tail bleeding time versus vehicle” value with mice [5] (20 mg/kg), in the series with mice [5] (40 mg/kg) and in the series on mice [5] (80 mg/kg) were 4.9 fold, 5.6 fold and 6.3 fold, respectively. Also, the “average tail bleeding time” value stood at 7.4 ± 1.0 min in the series with mice [5] (20 mg/kg i.v., N=5); 8.5 ± 0.6 min in the series on mice [5] (40 mg/kg i.v., N=5); 9.5 ± 0.5 min with mice [5] (80 mg/kg i.v., N=12). Further, the median survival time with ICR mice (LFM-A13 20 mg/kg) was 8.0 min; with ICR mice (LFM-A13 40 mg/kg), > 2880 min. Also, the “probability of event-free survival after thromboplastin challenge” value in the series on ICR mice (LFM-A13 20 mg/kg) is 20±13%; with ICR mice (LFM-A13 40 mg/kg) it was 80±13%. In addition, the “drug-related toxic lesions in organs” value with ICR mice (LFM-A13 pretreated, thromboplastin-challenged mice) is listed as “No drug-related toxic lesions were detected”. In addition, in the series on platelets [6], the collagen-induced calcium mobilization entry is listed as “significantly reduced”.

Source of the values: patent US6589992B2, “Inhibiting collagen-induced platelet aggregation” (Parker Hughes Institute, priority 1999, dated 2003).
